Assay results taken from paper PMC9127186, “Molecular Basis Underlying Hepatobiliary and Renal Excretion of Phenolic Acids of Salvia miltiorrhiza Roots (Danshen)” (Frontiers in Pharmacology, 2022).

Columns and labels:
[1] = biological target: T1, rat Octn2 (Rattus norvegicus, UniProt O70594); assay: Cellular transport assay, HEK-293 cells expressing rat Octn2; conditions: Danshen phenolic acid at 100 μM final concentration, 10 min; rat Octn2-transfected vs mock cells
T1 sequence (O70594 1-557): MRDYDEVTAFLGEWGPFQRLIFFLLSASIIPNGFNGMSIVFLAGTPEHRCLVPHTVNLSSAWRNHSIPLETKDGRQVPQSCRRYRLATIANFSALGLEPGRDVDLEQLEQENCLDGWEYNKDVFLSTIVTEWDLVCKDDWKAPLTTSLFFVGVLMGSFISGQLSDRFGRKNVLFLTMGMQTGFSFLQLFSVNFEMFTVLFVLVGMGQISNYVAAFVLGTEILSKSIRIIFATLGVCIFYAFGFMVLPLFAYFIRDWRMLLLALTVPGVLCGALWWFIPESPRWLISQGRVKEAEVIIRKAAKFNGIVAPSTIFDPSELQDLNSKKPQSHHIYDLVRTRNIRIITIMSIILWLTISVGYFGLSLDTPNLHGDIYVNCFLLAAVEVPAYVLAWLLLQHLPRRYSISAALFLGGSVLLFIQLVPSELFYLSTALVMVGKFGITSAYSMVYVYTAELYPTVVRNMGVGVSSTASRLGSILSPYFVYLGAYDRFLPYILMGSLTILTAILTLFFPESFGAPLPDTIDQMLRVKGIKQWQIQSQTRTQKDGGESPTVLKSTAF

[2] = biological target: T2, rat Oct2 (Rattus norvegicus, UniProt Q9R0W2); assay: Cellular transport assay, HEK-293 cells expressing rat Oct2; conditions: Danshen phenolic acid at 100 μM final concentration, 10 min; rat Oct2-transfected vs mock cells
T2 sequence (Q9R0W2 1-555): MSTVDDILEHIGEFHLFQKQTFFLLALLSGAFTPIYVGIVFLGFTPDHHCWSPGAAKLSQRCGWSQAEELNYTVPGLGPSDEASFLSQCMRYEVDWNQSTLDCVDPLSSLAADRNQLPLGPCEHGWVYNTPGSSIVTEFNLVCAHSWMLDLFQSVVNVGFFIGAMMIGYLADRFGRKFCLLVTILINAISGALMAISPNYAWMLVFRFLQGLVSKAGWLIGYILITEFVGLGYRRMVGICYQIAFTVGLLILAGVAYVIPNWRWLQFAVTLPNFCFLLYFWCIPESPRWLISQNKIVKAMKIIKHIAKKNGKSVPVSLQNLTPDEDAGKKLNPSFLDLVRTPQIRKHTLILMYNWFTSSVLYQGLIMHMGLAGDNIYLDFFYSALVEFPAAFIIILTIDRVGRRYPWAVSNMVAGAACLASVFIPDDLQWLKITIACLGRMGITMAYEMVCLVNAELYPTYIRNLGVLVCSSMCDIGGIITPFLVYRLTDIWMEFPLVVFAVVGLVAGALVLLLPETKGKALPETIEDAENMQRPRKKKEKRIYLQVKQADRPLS

[3] = biological target: T3, rat Ntcp (Rattus norvegicus, UniProt P26435); assay: Cellular transport assay, HEK-293 cells expressing rat Ntcp; conditions: Danshen phenolic acid at 100 μM final concentration, 10 min; rat Ntcp-transfected vs mock cells
T3 sequence (P26435 1-362): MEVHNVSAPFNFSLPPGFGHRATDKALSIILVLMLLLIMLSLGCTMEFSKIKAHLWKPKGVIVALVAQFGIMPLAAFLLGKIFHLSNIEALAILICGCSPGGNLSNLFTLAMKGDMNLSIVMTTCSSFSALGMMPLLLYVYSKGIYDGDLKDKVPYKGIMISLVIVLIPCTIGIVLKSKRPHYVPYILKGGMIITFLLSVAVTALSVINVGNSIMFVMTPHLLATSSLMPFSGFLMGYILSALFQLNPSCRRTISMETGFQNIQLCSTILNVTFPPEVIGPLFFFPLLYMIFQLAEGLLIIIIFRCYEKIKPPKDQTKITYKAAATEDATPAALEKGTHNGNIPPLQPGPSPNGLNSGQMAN

[4] = set-up: method as in Lu et al., 2008; conditions: ref Lu et al., 2008; cited from earlier work
[5] = biological target: T4, rat Bcrp (Rattus norvegicus, UniProt Q80W57); assay: Vesicular transport assay, inside-out membrane vesicles expressing rat Bcrp; conditions: 10 min
T4 sequence (Q80W57 1-657): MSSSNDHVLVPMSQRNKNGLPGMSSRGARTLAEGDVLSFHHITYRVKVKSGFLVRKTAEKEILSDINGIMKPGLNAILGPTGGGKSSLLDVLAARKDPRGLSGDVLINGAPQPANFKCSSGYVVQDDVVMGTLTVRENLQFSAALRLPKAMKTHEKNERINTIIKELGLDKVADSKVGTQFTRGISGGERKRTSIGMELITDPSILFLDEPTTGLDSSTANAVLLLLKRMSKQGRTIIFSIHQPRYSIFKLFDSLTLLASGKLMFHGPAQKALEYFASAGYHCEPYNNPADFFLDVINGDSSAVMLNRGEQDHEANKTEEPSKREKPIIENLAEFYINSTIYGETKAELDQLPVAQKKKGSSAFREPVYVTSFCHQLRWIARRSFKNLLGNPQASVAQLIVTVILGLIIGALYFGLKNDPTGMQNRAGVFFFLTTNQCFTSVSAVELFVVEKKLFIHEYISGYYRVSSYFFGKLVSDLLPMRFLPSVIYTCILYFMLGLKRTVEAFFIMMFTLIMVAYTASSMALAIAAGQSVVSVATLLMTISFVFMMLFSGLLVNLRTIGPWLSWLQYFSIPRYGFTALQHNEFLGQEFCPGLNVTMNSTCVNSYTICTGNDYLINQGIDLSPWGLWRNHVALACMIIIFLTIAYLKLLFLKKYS
Description: Inside-out membrane vesicles (5 mg protein/mL), prepared from insect cells expressing human multidrug resistance-associated protein (MRP) 2, MRP3, MRP4, breast cancer resistance protein (BCRP), bile salt export pump (BSEP), and multidrug resistance protein (MDR) one and rat Mrp2, Mrp4, Bcrp, and Bsep, and vesicles (5 mg protein/mL; prepared from the insect cells expressing no ABC transporter; serving as negative control) were obtained from Genomembrane (Kanazawa, Japan).
The test Danshen compounds at 100 µM final concentration were separately incubated with the membrane vesicles for 10 min. Buffer C (50 mM MOPS-tris, 70 mM KCl, 7.5 mM MgCl2, pH 7.0) was used for preincubation and incubation, while buffer D (40 mM MOPS-tris, 70 mM KCl, pH 7.0) was used for vesicle washing. The transport rate (pmol/mg protein/min) of the test Danshen compound was calculated using Equation (2): Transport=(CV×VV)/T/WV (2) where C V, V V, T, and W V represent concentration of the compound in vesicular lysates supernatant (μM), volume of the lysates (μL), incubation time (10 min), and amount of vesicle protein amount per well (0.05 mg), respectively. Differential transport of the test Danshen compound between ATP-containing vesicles and AMP-containing vesicles was defined as net transport ratio (TransportATP/TransportAMP ratio). […] All the incubation samples were analyzed by liquid chromatography/mass spectrometry.

[6] = Danshen phenolic acid at 100 μM final concentration, rat Bcrp vesicles

O=C(O)Cc1c(/C=C/C(=O)O[C@H](Cc2ccc(O)c(O)c2)C(=O)O)ccc(O)c1O [Salvianolic acid D, salvianolic acid D]
TransportTC/TransportMC ratio (net transport ratio) [1]: 1.12 ± 0.22
TransportTC/TransportMC ratio (net transport ratio) [2]: 1.44 ± 0.24
TransportTC/TransportMC ratio (net transport ratio) [3]: 1.49 ± 0.23
membrane permeability [4]: poor

O=C(/C=C/c1ccc(O)c2c1[C@H](C(=O)O)[C@@H](c1ccc(O)c(O)c1)O2)O[C@H](Cc1ccc(O)c(O)c1)C(=O)O [Lithospermic acid, lithospermic acid]
TransportTC/TransportMC ratio (net transport ratio) [1]: 0.95 ± 0.11
TransportTC/TransportMC ratio (net transport ratio) [2]: 1.11 ± 0.32
TransportATP/TransportAMP ratio (net transport ratio) [5, 6]: 1.27 ± 0.20
TransportTC/TransportMC ratio (net transport ratio) [3]: 1.71 ± 0.15

salvianolic acid B
TransportTC/TransportMC ratio (net transport ratio) [1]: 1.25 ± 0.21
TransportTC/TransportMC ratio (net transport ratio) [2]: 1.08 ± 0.21
TransportATP/TransportAMP ratio (net transport ratio) [5, 6]: 1.13 ± 0.14
TransportTC/TransportMC ratio (net transport ratio) [3]: 1.90 ± 0.02

O=C(O)c1ccc(O)c(O)c1 [Protocatechuic acid, protocatechuic acid]
TransportTC/TransportMC ratio (net transport ratio) [1]: 0.91 ± 0.17
TransportTC/TransportMC ratio (net transport ratio) [2]: 0.92 ± 0.08
TransportATP/TransportAMP ratio (net transport ratio) [5, 6]: 0.94 ± 0.21
TransportTC/TransportMC ratio (net transport ratio) [3]: 1.04 ± 0.27
membrane permeability [4]: fairly good

O=C(/C=C/c1ccc(O)c(O)c1/C=C/c1ccc(O)c(O)c1)O[C@H](Cc1ccc(O)c(O)c1)C(=O)O [Salvianolic acid A, salvianolic acid A]
TransportATP/TransportAMP ratio (net transport ratio) ([5]; rat, not told, 100 μM, pH 7): 1.31 ± 0.04

O=C(/C=C/c1ccc(O)c(O)c1)O[C@H](Cc1ccc(O)c(O)c1)C(=O)O [Rosmarinic acid, rosmarinic acid]
TransportATP/TransportAMP ratio (net transport ratio) ([5]; rat, not told, 100 μM, pH 7): 1.45 ± 0.32
membrane permeability [4]: poor
